Laboratory results as given in US6608103B2, “Inhibitor for neovasculation, cell multiplication, lumen formation and FGF” (Fuji Chemical Industry Co., Ltd., priority 2001, dated 2003).
“Also recorded” adds a separate entry of the source.

Key:
BAEC [1] = assay: Effects of tocotrienols on multiplication of BAEC, MTT assay; assay type: cell-based, bovine; settings: for Absorbance: MTT, sample 10 μM
Procedure: Normal bovine aortic endothelial cells (BAEC) were manufactured by Cell Systems Co., and purchased through Dainippon Seiyaku Co., Ltd.
A cell suspension was prepared by adding the cells to MEM (Sigma Chemical Co.) containing 10 v/v (%) fetal bovine serum (FBS), 20 IU/ml penicillin and 20 IU/ml streptomycin (MEM+10% FBS) in a concentration of 1×10^5 cells/ml, and cultured in a 5% CO2 incubator at 37° C. by using a 60 mm dish coated with type I collagen with subculturing every 2 to 3 days.
Each of the above samples was added to MEM containing 2% (v/v) FBS, 20 IU/ml penicillin and 20 IU/ml streptomycin (MEM+2% FBS), and subjected to testing.
Effects of tocotrienols on the multiplication of BAEC were examined by using MTT assay.
(§1) Each one microplate was taken out after 0, 24, 48 or 96 hours from placing the culture medium containing a sample. In the case of the microplate taken out after 96 hours, the culture medium was once changed after 48 hours. 3 mg/ml MTT solution PBS (−) was put in each well in an amount of 50 μl/well, and incubated for 3 hours in a CO2 incubator. After filling each well with phosphate buffered saline (PBS(−)), liquid in each well was evacuated, and isopropyl alcohol containing 0.04 mol/l HCL was put in each well in an amount of 200 μl/well. The microplates were allowed to stand overnight in a dark place, and then, absorbance at 595 nm and 655 nm (dual) was measured by a microplate reader.
In the case of Control group A, no sample was added.

BAEC [2] = assay: Inhibitory action against FGF activity, MTT assay on BAEC with FGF 20 ng/ml; assay type: cell-based, bovine; parameters: key to Cell Multiplication: ↑: Accelerated; /: Tendency to increase; No change; ↓: Inhibited; ↓↓: Strongly inhibited; settings: for Absorbance: MTT, FGF 20 ng/ml + sample 10 μM
Procedure: The fibroblast growth factor sample was prepared by dissolving a commercial FGF (Sigma Chemical Co.) in MEM (Sigma Chemical Co.)
as §1
In the case of Control group B, no sample was added.

BAEC [3] = assay: Neovasculation / lumen formation of BAEC between two layers of type I collagen gel; assay type: cell-based, bovine
Procedure: BAEC was cultured between two layers of type I collagen gel, and a lumen-like netting structure formed therebetween was evaluated.
(§2) Eight parts by volume of “Vitrogen Collagen” (Collagen Co.), 1 part by volume of 0.1 N NaOH and 1 part by volume of ×10 MEM (GIBCO BRL) were placed in a tube, and mixed quickly in an ice bath. The culture solution was removed by suction, and 0.5 ml/well of the above mixture containing collagen was pipetted into each well. The microplate was placed in a CO2 incubator for about 30 minutes to gelatinize it. 1.5 ml of a medium (MEM | 2% FBS) containing a sample was added, and continued to incubate while changing the medium every second day.
(§3) The variation of cells were observed by a microscope by taking a photograph, and lumen formation was evaluated by counting the number of branches of cells forming lumen.
The inhibition test against lumen formation was carried out in the same manner as Example 15, except that α-tocopherol was substituted for DL-α-tocotrienol.

BAEC [4] = assay: Inhibition against lumen formation induced by FGF; assay type: cell-based, bovine; parameters: key to Lumen Formation: ↑: Accelerated; /: Tendency to increase; No change; ↓: Inhibited; ↓↓: Strongly inhibited
Procedure: as §2, §3
The test was carried out similar to Examples 12-14, wherein FGF was added together with each tocotrienol. In the case of Control group E, no sample was added. […]

BAEC [5] = assay: Measurement of LDH activity, rate of cell damage of BAEC
Procedure: A rate of cell damage of BAEC by the sample was evaluated by measuring free LDH activity in a culture medium using a kit for LDH-cytotoxicity testing (Wako Co.)
(§4) BAEC with confluent growth were treated with trypsin, and suspended in MEM | 10% FBS in a concentration of 5×10^4 cell/ml. The cell suspension was placed in each well of a 96 well-microplate in an amount of 100 μl/well, and incubated overnight in a CO2 incubator. The culture solution in each well was removed, and changed to 100 μl culture medium (MEM+2% FBS) containing a sample to continue incubation. In the experiment, MEM+2% FBS was employed as a negative control (NC), and 2% Tween 20 dissolved in MEM | 2% FBS was employed as a positive control (PC). After 48 hours, 50 μl culture medium in each well was transferred to a new well, and the color producing reagent in the kit was added to the new wells in an amount of 50 μl/well. After incubating for 45 minutes at room temperature, reaction was terminated by adding 100 μl of 0.5 N HCL/well, and absorbance at 595 nm was measured. The rate of cell damage was determined by the following formula:
(§5) Rate of Cell Damage=(S−N)/(P−N)×100(%)
N: Absorbance of negative control
P: Absorbance of positive control
In Control group G, no sample was added.
The assay was carried out in the same manner as Example 30, except that the tocotrienol was replaced by α-tocopherol.

BAEC [6] = assay: Cell damage action (LDH) with FGF added; settings: FGF 20 ng/ml + sample 10 μM
Procedure: as §4, §5
Cell damage action of DL-α-tocotrienol, DL-β-tocotrienol, DL-γ-tocotrienol, DL-δ-tocotrienol and the tocotrienol mixture was examined against FGF. […] In Control group H, no sample was added.
The assay was carried out in the same manner as Example 36, except that the tocotrienol was replaced by α-tocopherol.

BAEC [7] = assay: Cell multiplication of BAEC, survival rate of cells using WST-1; assay type: cell-based, bovine; settings: for Survival Rate of Cells (% of control): 24 hours, WST-1
Procedure: Influence of tocotrienols on cell multiplication of BAEC was examined in various concentrations. The cell multiplication was evaluated by determining the survival rate of cells using WST-1, which makes it possible to conduct high sensitivity measurement, instead of conventional MTT.
As a blank, the culture medium alone was incubated without adding cells. […] The microplate was taken out after 24 hours from placing the culture medium containing a sample. 10 μl/well of WST-1 solution was added to each well, and incubated in a CO2 incubator. After 3 hours, absorbance at 450 nm and 655 nm (dual) of each well was measured by a microplate reader.
The samples employed were DL-α-tocotrienol, DL-γ-tocotrienol and DL-δ-tocotrienol. In the case of Control group I, no sample was added.
The survival rate of cells was determined by the following formula:
Survival Rate of Cells=(S−B)/(C−B)×100(%)
The results of Table 10 were made in a graph shown in FIG. 1, and median growth inhibition concentration (IC50) was determined from the graph. In the figure, the numbers on the ordinate indicate the survival rate of cells (% of control), and the numbers on the abscissa indicate concentration (μM). ● is DL-α-tocotrienol, ▪ is DL-β-tocotrienol, Δ is DL-γ-tocotrienol, and X is DL-δ-tocotrienol, respectively.

[8] = summary, FGF (20 ng/ml) + sample (10 μM)

With CC(C)=CCC/C(C)=C/CC/C(C)=C/CC[C@]1(C)CCc2cc(O)c(C)c(C)c2O1 (racemic) [DL-γ-Tocotrienol, γ-tocotrienol] the “inhibitory action against cell multiplication” value (BAEC [1]; 10 μM, Table 1) was “remarkable inhibitory action”, the Absorbance (BAEC [1]; 0 hr) was 0.101 ± 0.002 and the Absorbance (BAEC [1]; 24 hrs) was 0.020 ± 0.001. The Absorbance (BAEC [1]; 48 hrs) was 0.010 ± 0.002, the Absorbance (BAEC [1]; 96 hrs) was 0.003 ± 0.000 and the Absorbance (BAEC [2]; 0 hr) was 0.042 ± 0.002. For the same compound, the Absorbance (BAEC [2]; 24 hrs) was 0.085 ± 0.004, the Absorbance (BAEC [2]; 48 hrs) was 0.232 ± 0.016 and the Absorbance (BAEC [2]; 96 hrs) was 0.431 ± 0.011. For the same compound, the “Cell Multiplication” value (BAEC [2]; [8]) was “↑”, the “inhibition of lumen formation” value (BAEC [3]; 10 μM) was “inhibited lumen formation sufficiently” and the “Number of Cells Forming Lumen/cm^2” value (BAEC [3]; Table 4, 10 μM) was 4.75 ± 0.48 /cm^2. The “inhibition of lumen formation induced by FGF” value (BAEC [4]; 10 μM + FGF 20 ng/ml) was “inhibited the lumen formation induced by FGF; also recorded: exhibit inhibitory action against lumen formation”, the “Number of Cells Forming Lumen/cm^2” value (BAEC [4]; sample 10 μM + FGF 20 ng/ml) was 12.50 ± 3.20 /cm^2 and the “Lumen Formation” value (BAEC [4]; [8]) was “↓”. For the same compound, the “activity to damage cells” value (BAEC [5]; 10 μM, Table 7) was “have an activity to damage cells”, the “Rate of Cell Damage (% of control)” value (BAEC [5]; Table 7, 10 μM, 48 hours) was 265.33 ± 3.18 % of control and the “Rate of Cell Damage (% of control)” value (BAEC [6]) was 101.15 ± 2.38 % of control. For the same compound, the “Survival Rate of Cells (% of control)” value (BAEC [7]; 10 μM) was 102.3 ± 10.8 % of control, the “Survival Rate of Cells (% of control)” value (BAEC [7]; 12 μM) was 15.5 ± 4.5 % of control and the “Survival Rate of Cells (% of control)” value (BAEC [7]; 14 μM) was 3.4 ± 3.1 % of control. The “Survival Rate of Cells (% of control)” value (BAEC [7]; 16 μM) was 0.0 ± 0.1 % of control, the “Survival Rate of Cells (% of control)” value (BAEC [7]; 18 μM) was 2.0 ± 2.8 % of control and the IC50 (BAEC [7]; determined from the graph of FIG. 1 (abscissa μM), read-out: median growth inhibition concentration (IC50)) was 11 µM.
